Laboratory results reported in patent publication US11279702B2, “AMPK activators” (Kallyope, Inc., priority 2020, dated 2022).

Legend:
[1] = Concentrations in colon post oral dosing; assay type: in vivo, mouse; conditions: PO 30 mg/kg
Description: A time course for colonic exposure to Compound A1 was determined in mouse following a single bolus oral (PO) gavage of 30 mg/kg of A1. Whole colon from cecum to rectum was collected at 2, 4, 6, and 8 hours post-dose and snap frozen. Tissue was homogenized and the concentration of A1 was measured.

MDCK cells = assay: Effects on tight junction (TJ) architecture, ZO-1 staining; assay type: cell-based; conditions: 10 μM, low calcium medium (LCM)
Description: MDCK cells were grown to confluence on Transwell inserts in standard growth media. The inserts were then washed and incubated in low calcium medium (LCM) with vehicle or compound (10 μM) and fixed with paraformaldehyde. Fixed cells were stained for tight junction (TJ) component proteins using commercially available antibodies and visualized on a confocal microscope (Model DM6, Leica Microsystems). As shown by zona occludens-1 (ZO-1) staining, confluent epithelial cell monolayers in standard growth media display well-organized TJs that allow the cells to form a tight seal with their neighbors, while LCM induces autonomous internalization of TJ proteins into the cytoplasm and therefore compromises the barrier function of the epithelial monolayer.

BCRP = BCRP (Homo sapiens (Human), UniProt Q9UNQ0); assay: in vitro; assay type: in vitro ADME; conditions: for efflux transporter substrate assessment: Caco-2; for Efflux Ratio / Mean Papp (10^−6 cm/s) B to A / Mean Recovery (%) A to B / Mean Recovery (%) B to A / Papp B→A at 2 h, 2 μM / recovery at 2 h, 2 μM: human; for Efflux Ratio / Mean Papp (10^−6 cm/s) B to A / Mean Recovery (%) A to B / Mean Recovery (%) B to A: Caco-2, 2 h, 2 μM, pH 7.4; for Papp B→A at 2 h, 2 μM: Caco-2, pH 7.4, Mean Papp (10^−6 cm/s) B to A
Description: Caco-2 cells purchased from ATCC were seeded onto […] (PET) in 96-well BD Insert plates at 1×10^5 cells/cm^2, and refreshed medium every 4-5 days until to the 21st to 28th day for confluent cell monolayer formation. The transport buffer in the study was HBSS with 10 mM HEPES at pH 7.40±0.05. Compounds were tested at 2 μM in the presence or absence of 30 μM novobiocin bi-directionally in duplicate. E3S was tested at 5 μM in the presence or absence of 30 μM novobiocin bi-directionally in duplicate, while nadolol and metoprolol were tested at 2 μM in the absence of novobiocin in A to B direction in duplicate. Final DMSO concentration was adjusted to less than 1%. The plate was incubated for 2 hours in CO2 incubator at 37+1° C., with 5% CO2 at saturated humidity without shaking. All samples were mixed with acetonitrile containing internal standard and were centrifuged at 4000 rpm for 10 min. Subsequently, 100 μL supernatant solution was diluted with 100 μL distilled water for LC/MS/MS analysis. Concentrations of test and control compounds in starting solution, donor solution, and receiver solution were quantified by LC/MS/MS, using peak area ratio of analyte/internal standard.

[2] = tested on: Acetyl CoA Carboxylase (ACC) Phosphorylation in Mouse Muscle; assay: Level of ACC phosphorylation in mouse muscle; assay type: in vivo, C57BL/6J mice
Description: Systemic AMPK target engagement in vivo can be assessed by measuring the site-specific phosphorylation of a direct AMPK substrate, acetyl-coenzyme A carboxylase (ACC), in a well perfused tissue such as muscle.
Compounds were formulated in vehicle (0.25% methyl cellulose, 5% Tween 80, 0.02% sodium dodecyl sulfate (SDS) in Hanks' Buffered Salt Solution with Ca^2+ and Mg^2+). Male C57BL/6J mice were administered vehicle or compound once daily for 5 days. On the final day of dosing (day 1 for acute assessment, day 5 for sub-chronic assessment), mice were euthanized by cervical dislocation five hours post dose and samples of skeletal muscle (gastrocnemius) were removed and snap frozen in liquid nitrogen.
Frozen muscle tissues were homogenized. Homogenates were analyzed for protein concentration and equal amounts of protein were assayed for total and phosphorylated ACC (p-ACC) levels using Meso Scale Discovery's Multi-array assay kit. The ratio of p-ACC/total ACC was determined for each sample.

[3] = Caco-2, pH 7.4, Mean Recovery (%) A to B
[4] = Caco-2, pH 7.4, Mean Recovery (%) B to A

Chain of BCRP (Q9UNQ0 whole entry): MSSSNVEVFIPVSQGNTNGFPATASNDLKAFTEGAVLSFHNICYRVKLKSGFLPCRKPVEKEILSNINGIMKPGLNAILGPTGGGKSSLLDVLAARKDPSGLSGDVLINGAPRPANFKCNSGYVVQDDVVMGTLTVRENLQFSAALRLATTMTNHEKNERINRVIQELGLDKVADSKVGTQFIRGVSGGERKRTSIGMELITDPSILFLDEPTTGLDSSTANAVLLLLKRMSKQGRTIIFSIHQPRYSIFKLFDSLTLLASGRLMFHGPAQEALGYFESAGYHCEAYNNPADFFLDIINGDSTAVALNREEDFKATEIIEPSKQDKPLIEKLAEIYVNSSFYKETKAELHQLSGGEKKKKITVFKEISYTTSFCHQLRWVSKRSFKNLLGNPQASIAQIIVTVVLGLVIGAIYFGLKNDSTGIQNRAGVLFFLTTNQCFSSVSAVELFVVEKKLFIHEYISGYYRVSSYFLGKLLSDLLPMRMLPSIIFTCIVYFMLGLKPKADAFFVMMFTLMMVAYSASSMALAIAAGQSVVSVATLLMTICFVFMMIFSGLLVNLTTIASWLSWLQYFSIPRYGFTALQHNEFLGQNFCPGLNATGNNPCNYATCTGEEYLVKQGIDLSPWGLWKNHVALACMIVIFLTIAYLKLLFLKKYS

| Structure (SMILES) | colonic exposure profile ([1]; 2 to 8 hours post-dose) | concentration in colon ([1]; 2 h post dosing) | concentration in colon ([1]; 4 h post dosing) | concentration in colon ([1]; 6 h post dosing) | concentration in colon ([1]; 8 h post dosing) | TJ architecture by zona occludens-1 (ZO-1) staining (MDCK cells) | efflux transporter substrate assessment (BCRP) | Efflux Ratio (BCRP) | Mean Papp (10^−6 cm/s) B to A (BCRP) | Mean Recovery (%) A to B (BCRP) | Mean Recovery (%) B to A (BCRP) | Papp B→A at 2 h, 2 μM (BCRP) | recovery at 2 h, 2 μM (BCRP; [3]) | recovery at 2 h, 2 μM (BCRP; [4]) | % p-ACC/ACC ratio change vs. Vehicle, Sub-chronic (5 days) ([2]; 30 mg/kg once daily for 5 days, five hours post dose, gastrocnemius) | % p-ACC/ACC ratio change vs. Vehicle, Acute (5 hr) ([2]; 30 mg/kg, day 1, five hours post dose, gastrocnemius) | ratio of pACC/total ACC compared with vehicle control mice ([2]; 30 mg/kg, one-way ANOVA vs vehicle (Dunnett's post-test)) |
| --- | --- | --- | --- | --- | --- | --- | --- | --- | --- | --- | --- | --- | --- | --- | --- | --- | --- |
| O=C(O)CSc1nc2cc(-c3ccc(-c4ccccc4O)cc3)c(Cl)cc2[nH]1 [Compound A1] | 122 to 255 µM | 254 µM | 122 µM | 128 µM | 205 µM | prevented the loss of TJ architecture | likely substrates of intestinal efflux transporters | 55.54 | 9.16 10^−6 cm/s | 61.16% | 78.94% | 17.1 ×10⁻⁶ cm/s | < 65.6% | 77.4% | – | – | – |
| O=C(O)CSc1nc2nc(-c3ccc(-c4ccccc4O)cc3)c(Cl)cc2[nH]1 [Compound 1, 2-((6-chloro-5-(2′-hydroxy-[1,1′-biphenyl]-4-yl)-1H-imidazo[4,5-b]pyridin-2-yl)thio)acetic Acid] | – | – | – | – | – | prevented the loss of TJ architecture | likely substrates of intestinal efflux transporters | 44.89 | 6.98 10^−6 cm/s | 69.40% | 82.75% | 12.7 ×10⁻⁶ cm/s | < 68.8% | 79.5% | 29.6% | 6.6% | not significantly changed |
